Measurements taken from ChEMBL document CHEMBL3286174, “Orally active 7-substituted (4-benzylphthalazin-1-yl)-2-methylpiperazin-1-yl]nicotinonitriles as active-site inhibitors of sphingosine 1-phosphate lyase for the treatment of multiple sclerosis” (J Med Chem, 2014).

Key:
[1] = target: T1, Sphingosine-1-phosphate lyase 1 (Homo sapiens, UniProt O95470); test: biochemical
T1 sequence (O95470 whole entry): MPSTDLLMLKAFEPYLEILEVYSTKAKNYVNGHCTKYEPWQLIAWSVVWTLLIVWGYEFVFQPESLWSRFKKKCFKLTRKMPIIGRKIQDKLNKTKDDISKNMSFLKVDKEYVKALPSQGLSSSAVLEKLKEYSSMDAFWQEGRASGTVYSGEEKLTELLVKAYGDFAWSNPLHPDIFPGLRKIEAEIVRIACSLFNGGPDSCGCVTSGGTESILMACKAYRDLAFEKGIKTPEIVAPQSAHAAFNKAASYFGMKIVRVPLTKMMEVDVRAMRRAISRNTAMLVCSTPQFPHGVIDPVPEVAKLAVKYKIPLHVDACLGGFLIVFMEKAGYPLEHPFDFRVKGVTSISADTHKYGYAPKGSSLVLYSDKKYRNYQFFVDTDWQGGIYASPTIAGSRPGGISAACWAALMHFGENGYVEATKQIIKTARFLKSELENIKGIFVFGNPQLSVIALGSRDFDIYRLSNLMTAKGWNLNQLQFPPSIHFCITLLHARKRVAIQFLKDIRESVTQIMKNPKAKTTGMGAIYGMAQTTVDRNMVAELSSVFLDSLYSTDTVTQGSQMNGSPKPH
Description: Inhibition of human recombinant S1PL (62 to 568) expressed in Sf9 insect cells using S1P as substrate after 1 hr

Protein smoothened = Protein smoothened (Homo sapiens, UniProt Q99835); test: Antagonist activity at smoothened (unknown origin)
[2] = target: T1, Sphingosine-1-phosphate lyase 1; test: Inhibition of S1PL (unknown origin)
Rattus norvegicus [3] = test: Antiinflammatory activity in incomplete Freund's adjuvant-induced autoimmune encephalomyelitis DA rat model assessed as S1P level in lymph node at 2 mg/kg, po bid administered 2 days before the induction of EAE relative to control; type: functional
Rattus norvegicus [4] = test: Reduction of peripheral CD4+ and CD8+ T cell level in Wistar rat at 2 mg/kg, po administered ever 12 hrs for 4 times measured 12 hrs after last dose by flow cytometry analysis; type: functional; design: scale not given: the % may be the effect or the level left
[5] = Cmax in Sprague-Dawley rat at 3 mg/kg, po; type: ADME, organism-based; design: dose 3 mg/kg, route oral; conditions: in vivo
[6] = Oral bioavailability in Sprague-Dawley rat at 3 mg/kg; type: ADME, organism-based; conditions: in vivo
Rattus norvegicus [7] = test: Antiinflammatory activity in incomplete Freund's adjuvant-induced autoimmune encephalomyelitis DA rat model assessed as S1P level in brain at 2 mg/kg, po bid administered 2 days before the induction of EAE; type: functional
[8] = Half life in Sprague-Dawley rat at 1 mg/kg, iv; type: ADME, organism-based; design: dose 1 mg/kg, route intravenous; conditions: in vivo
[9] = Drug level in blood of incomplete Freund's adjuvant-induced autoimmune encephalomyelitis DA rat model at 2 mg/kg, po bid administered 2 days before the induction of EAE; type: organism-based; design: dose 2 mg/kg, route oral; conditions: whole blood, read-out: Drug uptake
[10] = Drug level in brain of incomplete Freund's adjuvant-induced autoimmune encephalomyelitis DA rat model at 2 mg/kg, po bid administered 2 days before the induction of EAE; type: organism-based; design: dose 2 mg/kg, route oral; conditions: read-out: Drug uptake
[11] = AUC (0 to infinity) in Sprague-Dawley rat at 3 mg/kg, po; type: ADME, organism-based, Plasma; design: time infinity, dose 3 mg/kg, route oral; conditions: blood
[12] = Tmax in Sprague-Dawley rat at 3 mg/kg, po; type: ADME, organism-based; design: dose 3 mg/kg, route oral; conditions: in vivo
Rattus norvegicus [13] = test: Reduction of peripheral B cell level in Wistar rat at 2 mg/kg, po administered ever 12 hrs for 4 times measured 12 hrs after last dose by flow cytometry analysis; type: functional; design: scale not given: the % may be the effect or the level left
Rattus norvegicus [14] = test: Reduction of peripheral CD4+ T cell level in Wistar rat at 50 mg/kg, po after 14 to 24 hrs by flow cytometry analysis; type: functional; design: scale not given: the % may be the effect or the level left
[15] = Blood clearance in Sprague-Dawley rat at 1 mg/kg, iv; type: ADME, organism-based; design: dose 1 mg/kg, route intravenous; conditions: whole blood
[16] = Plasma concentration in Wistar rat at 2 mg/kg, po administered ever 12 hrs for 4 times measured 12 hrs after last dose; type: ADME, organism-based; design: dose 2 mg/kg, route oral

Sequence of Protein smoothened (Q99835 whole entry): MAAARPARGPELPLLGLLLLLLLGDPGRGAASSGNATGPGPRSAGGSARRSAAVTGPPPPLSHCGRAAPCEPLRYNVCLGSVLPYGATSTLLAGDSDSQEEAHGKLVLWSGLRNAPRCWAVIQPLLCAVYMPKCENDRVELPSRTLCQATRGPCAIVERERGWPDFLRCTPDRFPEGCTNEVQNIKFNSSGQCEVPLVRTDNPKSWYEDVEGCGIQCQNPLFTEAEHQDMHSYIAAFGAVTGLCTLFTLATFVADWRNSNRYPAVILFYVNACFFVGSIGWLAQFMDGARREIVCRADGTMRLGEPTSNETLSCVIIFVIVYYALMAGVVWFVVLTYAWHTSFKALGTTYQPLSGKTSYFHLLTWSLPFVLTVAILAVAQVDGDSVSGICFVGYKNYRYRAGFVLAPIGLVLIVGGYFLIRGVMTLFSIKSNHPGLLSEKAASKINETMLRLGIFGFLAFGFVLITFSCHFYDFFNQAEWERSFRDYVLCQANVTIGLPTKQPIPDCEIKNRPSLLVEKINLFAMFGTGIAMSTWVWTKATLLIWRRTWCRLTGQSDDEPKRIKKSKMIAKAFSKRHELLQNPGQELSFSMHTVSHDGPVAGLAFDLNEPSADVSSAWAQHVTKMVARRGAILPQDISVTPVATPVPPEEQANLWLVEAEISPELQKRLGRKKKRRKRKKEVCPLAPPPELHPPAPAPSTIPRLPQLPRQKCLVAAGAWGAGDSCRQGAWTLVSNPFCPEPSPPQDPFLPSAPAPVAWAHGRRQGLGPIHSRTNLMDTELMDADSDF

CC[C@@H]1CN(c2nnc(Cc3ccccc3)c3ccccc23)CCN1c1ccc(C#N)cn1
IC50 [1]: 1.7 µM

N#Cc1ccc(N2CCN(c3nnc(Cc4ccccc4)c4ccccc34)CC2)nc1
IC50 [1]: > 30 µM

CC(C)[C@@H]1CN(c2nnc(Cc3ccccc3)c3ccccc23)CCN1c1ccc(C#N)cn1
IC50 [1]: 2.5 µM

CCOC(=O)c1ccc(N2CCN(c3nnc(Cc4ccccc4)c4ccccc34)C[C@H]2C)nc1
IC50 [1]: 3.4 µM

C[C@@H]1CN(c2nnc(CCc3ccccc3)c3ccccc23)CCN1c1ccc(C#N)cn1
IC50 [1]: 30 µM

C[C@@H]1CN(c2nnc(Cc3ccccc3)c3ccc(C#N)cc23)CCN1c1ccc(C#N)cn1
IC50 (Protein smoothened): > 25 µM

C[C@@H]1CN(c2nnc(Cl)c3ccccc23)CCN1c1ccc(C#N)cn1
IC50 [1]: > 30 µM

C[C@@H]1CN(c2nnc(Cc3ccccc3)c3ccccc23)CCN1c1ccc(C(=O)O)cn1
IC50 [1]: > 30 µM

C[C@@H]1CN(c2nnc(Cc3ccccc3)c3cc(C(F)(F)F)ccc23)CCN1c1ccc(C#N)cn1
IC50 [1]: 12 µM

C[C@@H]1CN(c2nnc(Cc3ccccc3)c3ccc(C(F)(F)F)cc23)CCN1c1ccc(C#N)cn1
IC50 [1]: 0.1 µM

C[C@@H]1CN(c2nnc(Cc3ccccc3)c3ccccc23)CCN1c1ccc([N+](=O)[O-])cn1
IC50 [1]: 0.74 µM

C/C(=N\O)c1nc([C@@H](O)[C@H](O)[C@H](O)CO)c[nH]1 [LX-2931]
IC50 [2]: > 100 µM

CC(=O)c1nc([C@@H](O)[C@H](O)[C@H](O)CO)c[nH]1
IC50 [2]: > 100 µM

C[C@@H]1CN(c2nnc(-c3ccccc3)c3ccccc23)CCN1c1ccc(C#N)cn1
IC50 [1]: > 30 µM

C[C@@H]1CN(c2nnc(Cc3ccccc3)c3cc(C#N)ccc23)CCN1c1ccc(C#N)cn1
IC50 [1]: 1.3 µM

C[C@@H]1CN(c2nnc(Cc3ccccc3)c3ccccc23)CCN1c1ccc(C#N)cn1
IC50 [1]: 2.4 µM

C[C@@H]1CN(c2nnc(Cc3ccccc3)c3ccccc23)CCN1c1ccc(C(F)(F)F)cn1
IC50 [1]: 30 µM

C[C@@H]1CN(c2nnc(Cc3ccccc3)c3ccc(Cl)cc23)CCN1c1ccc(C#N)cn1
fold change (FC) (Rattus norvegicus [3]): 150 | Activity (Rattus norvegicus [4]): >95% | Cmax [5]: 99 nM | bioavailability [6]: 26% | Activity (Rattus norvegicus [7]): 2.4 pmol/mg | half-life [8]: 9.1 h | concentration at 48 h [9]: 840 nM | concentration at 48 h [10]: 610 nM | AUC(0-inf) [11]: 1.3 µM·h | Tmax [12]: 5 h | Activity (Rattus norvegicus [13]): 70% | IC50 [1]: 0.21 µM | Activity (Rattus norvegicus [14]): >80% | IC50 (Protein smoothened): 0.44 µM | clearance [15]: 23 mL/min/kg | concentration at 12 h [16]: 400 nM

C[C@@H]1CN(c2nnc(Cc3ccccc3)c3cc(Cl)ccc23)CCN1c1ccc(C#N)cn1
IC50 [1]: 2.3 µM

N#Cc1ccc(N2CCN(c3nnc(Cc4ccccc4)c4ccccc34)CC2CO)nc1 (single isomer, unassigned)
IC50 [1]: > 30 µM

C[C@H]1CN(c2nnc(Cc3ccccc3)c3ccccc23)CCN1c1ccc(C#N)cn1
IC50 [1]: > 30 µM

CCCCCCCCc1ccc(CCC(N)(CO)CO)cc1 [FINGOLIMOD]
IC50 [1]: 17 µM | IC50 [2]: 17 µM
